What was measured:
α-glucosidase = conditions: previously reported; cited from earlier work
[1] = target: human lysosomal α-glucosidase (Homo sapiens, UniProt P10253); assay: α-glucosidase inhibitory activity assay; assay type: biochemical; conditions: 1.43 mM compound; lysosomal α-glucosidase extracts; pH 4.0, 37 °C

Molecule | IC50 (α-glucosidase) | α-glucosidase inhibition (%) [1]
O=c1cc(-c2ccccc2)oc2cc(O)cc(O)c12 [chrysin] | 77 µM | 
1-(α-D-Glucopyranosyl)-4-cyano-phenyl-[1,2,3]-triazole [AGT3] |  | 46%
1-(α-D-Glucopyranosyl)-4-nitro-phenyl-[1,2,3]-triazole [AGT5] |  | 57%
